Measurements published in paper PMC11494503, “Next Generation SICLOPPS Screening for the Identification of Inhibitors of the HIF-1α/HIF-1β Protein–Protein Interaction” (ACS Chemical Biology, 2024).
Where two headings read alike, the source gives them in different places. Peptide text beside a SMILES is read from it.

Assays:
HIF-1α/HIF-1β PPI = assay: SICLOPPS CX5 library screen in HIF-1 RTHS with biopanning and NGS; format: cell-based, E. coli; settings: after 2 rounds of biopanning
Text: The HIF-1 RTHS links the PPI between HIF-1α-P22 and HIF-1β-434 fusion proteins to the life/death of the host E. coli via three reporter genes.[14] Interaction of HIF-1α and HIF-1β results in the formation of a chimeric P22/434 repressor that inhibits the transcription of the KanR and His3 reporter genes, which are required for cell survival in selection media (Figure S1). Disruption of the HIF-1α/HIF-1β PPI also disrupts the repressor complex, leading to transcription of the reporter genes and survival of colonies that contain cyclic peptide HIF-1 inhibitors. Thus, cells containing cyclic peptide inhibitors of the targeted PPI will survive and grow on selective media, whereas all others will not. The HIF-1 RTHS cells were transformed with the sequenced CX5 library and, after recovery, plated onto a selective medium. After incubation for 48 h at 37 °C, selection plates were scraped to collect all colonies, and the SICLOPPS plasmids were isolated. The extein coding region of these plasmids was subsequently sequenced by NGS. We observed sequence enrichment after one round of biopanning, with the three sequences (CAAAAA, CRLYVL, and CVTYVL) making up 7.8% of the entire library with over 10 000 copies each per 1 M reads (Figure 2a). The prevalence of the control sequence was reduced by 44% from 80 000 to 45 000 copies per million reads, which further indicated enrichment of cyclic peptide inhibitors of the HIF-1α/HIF-1β PPI in the RTHS. The next 47 sequences were present with over 1000 copies after round 1 which made up a further 15% of the library (Figure 2a). HIF-1 RTHS cells were transformed with the SICLOPPS plasmid library isolated from round 1 of biopanning, for a second round of selection. After incubation, all colonies were scraped, and plasmids were isolated and sequenced by NGS as before. We observed further sequence enrichment after the second round of biopanning, evident by the shift of the library population from the mostly low-prevalence sequences in both the naïve library and after one round of biopanning to mostly highly prevalent cyclic peptide sequences after round 2 of biopanning (Figure 2b). With 159 000 copies per 1 M reads, the most prevalent sequence is CRTYIL, while the next 14 sequences were all present with more than 10 000 copies per 1 M. The top 15 sequences make up over 50% of the entire library. The CA5 internal standard dropped to 0.5%, providing further evidence of enrichment of active inhibitors during biopanning.
All reagents were purchased from Fisher Scientific or Sigma Aldrich UK unless specified otherwise.
Restriction enzymes and microbiology reagents were purchased from New England Biolabs Inc., FisherScientific (UK) or Promega (UK) and were used as directed by the manufacturer. Primers and oligonucleotides were synthesised by Integrated DNA Technologies (UK). DNA sequencing was carried out by Eurofins MWG Operon (Germany).
Construction of the RTHS and SICLOPPS library was conducted as previously described.2 […]
Electrocompetent RTHS-HIF 1 cells2 were transformed with 100 ng freshly prepared SICLOPPS CX5 library, prepared as previously detailed.3 The recovery mixture was plated on 6 square plates containing M9 minimal media supplemented with 50 µg/mL ampicillin, 25 µg/mL Spectinomycin, 50 µg/mL kanamycin, 35 µg/mL chloramphenicol, 100 µM IPTG, 6.5 µM L-arabinose and 7.5 mM 3-amino triazole and incubate at 37 °C for 48 h. To ensure sufficie transformation efficiency, 10 µL transformation mixture was subjected to 10-fold serial dilutions plated on LB-agar with 35 µg/m […]
Chloramphenicol. […] All cells were […]
then harvested by resuspending the colonies in a total of 50 mL LB medium and transferring to a centrifuge tube and centrifugation for 30 min at 4000 rpm and 4°C. The cell pellet was then subjected to maxi prep (GeneJET Plasmid Maxiprep kit Thermo Scientific) and the resulting plasmid library was used for the next round of biopanning and NGS. The second round of bio panning was […]

PAS-B domain of HIF-1α = biological target: T1, PAS-B domain of HIF-1α (Homo sapiens, UniProt Q16665); assay: Microscale thermophoresis (MST) binding to HIF-1α PAS-B domain
T1 construct: The HIF-1a PAS-B domain was expressed and purified as previously described; made in house
Description: We synthesized the top 20 cyclic peptides from the ranking approach. We also synthesized cyclo-CLLFVY as a control.[14] These compounds were assessed for binding to the PAS-B domain of HIF-1α by microscale thermophoresis (MST). […]

[1] = MST, HIF-1α PAS-B, mean (n = 3) ± SEM, read-out: KD

T1 sequence (Q16665 228-298 limits assumed): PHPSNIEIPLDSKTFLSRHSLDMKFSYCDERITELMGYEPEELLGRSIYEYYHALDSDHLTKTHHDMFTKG

Row | Compound | Enrichment after pan 2 [%] (HIF-1α/HIF-1β PPI) | Kd (PAS-B domain of HIF-1α; [1]) [µM] | Kd (PAS-B domain of HIF-1α) [µM] | fold better KD than the control peptide cyclo-CLLFVY in the same assay (PAS-B domain of HIF-1α; MST, HIF-1α) [fold]
1 | CC(C)C[C@@H]1NC(=O)[C@H](CC(N)=O)NC(=O)[C@H](CC(C)C)NC(=O)[C@H](CC(C)C)NC(=O)[C@H](Cc2ccccc2)NC(=O)[C@H](CS)NC1=O [CFLLNL, cyclo-CFLLNL] (cyclo(CFLLNL)) | 1.509 | 103 ± 8 |  | 
2 | CC(C)C[C@@H]1NC(=O)[C@H](CCCCN)NC(=O)[C@H](CS)NC(=O)[C@H](CC(C)C)NC(=O)[C@H](CC(C)C)NC(=O)[C@H](Cc2ccccc2)NC1=O [CKLFLL] (cyclo(CKLFLL)) | 0.6884 |  |  | 
3 | CC(C)C[C@@H]1NC(=O)[C@H](CC(C)C)NC(=O)[C@H](Cc2ccccc2)NC(=O)[C@H](C(C)C)NC(=O)[C@H](CCCCN)NC(=O)[C@H](CS)NC1=O [CKVFLL, cyclo-CKVFLL] (cyclo(CKVFLL)) | 3.064 | 42 ± 12 |  | 
4 | CC(C)C[C@@H]1NC(=O)[C@H](CS)NC(=O)[C@H](Cc2ccccc2)NC(=O)[C@H](CC(C)C)NC(=O)[C@H](CC(C)C)NC(=O)[C@H](CS)NC1=O [CLLFCL, cyclo-CLLFCL] (cyclo(CLCLLF)) | 1.071 |  | 0.47 ± 0.01 | > 80
5 | CC[C@H](C)[C@@H]1NC(=O)[C@H](Cc2ccccc2)NC(=O)[C@H]([C@@H](C)CC)NC(=O)[C@H](CCCNC(=N)N)NC(=O)[C@H](CS)NC(=O)[C@H](CCSC)NC1=O [CRIFIM, cyclo-CRIFIM] (cyclo(CRIFIM)) | 1.319 | 26 ± 1 |  | 
6 | CC[C@H](C)[C@@H]1NC(=O)[C@H](CC(C)C)NC(=O)[C@H]([C@@H](C)CC)NC(=O)[C@H](CCCNC(=N)N)NC(=O)[C@H](CS)NC(=O)[C@H](CC(C)C)NC1=O [CRILIL, cyclo-CRILIL] (cyclo(CRILIL)) | 2.819 | 20 ± 1 |  | 
7 | CC[C@H](C)[C@@H]1NC(=O)[C@H](CC(C)C)NC(=O)[C@H](CCCNC(=N)N)NC(=O)[C@H](CS)NC(=O)[C@H](C(C)C)NC(=O)[C@H]([C@@H](C)CC)NC1=O [CRLIIV, cyclo-CRLIIV] (cyclo(CRLIIV)) | 1.138 | 28 ± 2 |  | 
8 | CC[C@H](C)[C@@H]1NC(=O)[C@H](CC(C)C)NC(=O)[C@H](CC(C)C)NC(=O)[C@H](CCCNC(=N)N)NC(=O)[C@H](CS)NC(=O)[C@H](CC(C)C)NC1=O [CRLLIL, cyclo-CRLLIL] (cyclo(CRLLIL)) | 1.196 | 20 ± 1 |  | 
9 | CC[C@H](C)[C@@H]1NC(=O)[C@H](Cc2ccc(O)cc2)NC(=O)[C@H](CC(C)C)NC(=O)[C@H](CCCNC(=N)N)NC(=O)[C@H](CS)NC(=O)[C@H](C(C)C)NC1=O [CRLYIV, cyclo-CRLYIV] (cyclo(CRLYIV)) | 2.142 | 122 ± 4 |  | 
10 | CC(C)C[C@@H]1NC(=O)[C@H](CCCNC(=N)N)NC(=O)[C@H](CS)NC(=O)[C@H](CC(C)C)NC(=O)[C@H](C(C)C)NC(=O)[C@H](Cc2ccc(O)cc2)NC1=O [CRLYVL, cyclo-CRLYVL] (cyclo(CRLYVL)) | 8.962 | 150 ± 40 |  | 
11 | CC[C@H](C)[C@@H]1NC(=O)[C@H](Cc2ccccc2)NC(=O)[C@H](CCSC)NC(=O)[C@H](CCCNC(=N)N)NC(=O)[C@H](CS)NC(=O)[C@H](CC(C)C)NC1=O [CRMFIL, cyclo-CRMFIL] (cyclo(CRMFIL)) | 0.6746 | 20 ± 4 |  | 
12 | CSCC[C@@H]1NC(=O)[C@H](CCCNC(=N)N)NC(=O)[C@H](CS)NC(=O)[C@H](CC(C)C)NC(=O)[C@H](C(C)C)NC(=O)[C@H](Cc2ccc(O)cc2)NC1=O [CRMYVL, cyclo-CRMYVL] (cyclo(CRMYVL)) |  | 58 ± 17 |  | 
13 | CC[C@H](C)[C@@H]1NC(=O)[C@H](CCCNC(=N)N)NC(=O)[C@H](CCCNC(=N)N)NC(=O)[C@H](CS)NC(=O)[C@H](CC(C)C)NC(=O)[C@H]([C@@H](C)CC)NC1=O [CRRIIL, cyclo-CRRIIL] (cyclo(CRRIIL)) | 0.9912 | 8 ± 1 |  | 
14 | CC(C)C[C@@H]1NC(=O)[C@H](C(C)C)NC(=O)[C@H](Cc2ccccc2)NC(=O)[C@H](CO)NC(=O)[C@H](CCCNC(=N)N)NC(=O)[C@H](CS)NC1=O [CRSFVL] (cyclo(CRSFVL)) | 0.6155 |  |  | 
15 | CC[C@H](C)[C@@H]1NC(=O)[C@H]([C@@H](C)O)NC(=O)[C@H](CCCNC(=N)N)NC(=O)[C@H](CS)NC(=O)[C@H](CC(C)C)NC(=O)[C@H](C(C)C)NC1=O [CRTIVL, cyclo-CRTIVL] (cyclo(CRTIVL)) | 3.427 | > 250 |  | 
16 | CC[C@H](C)[C@@H]1NC(=O)[C@H](Cc2ccc(O)cc2)NC(=O)[C@H]([C@@H](C)O)NC(=O)[C@H](CCCNC(=N)N)NC(=O)[C@H](CS)NC(=O)[C@H](CC(C)C)NC1=O [CRTYIL, cyclo-CRTYIL] (cyclo(CRTYIL)) | 15.78 | 24 ± 1 |  | 
17 | CC(C)C[C@@H]1NC(=O)[C@H](CC(C)C)NC(=O)[C@H](Cc2ccccc2)NC(=O)[C@H](C(C)C)NC(=O)[C@H](CCCNC(=N)N)NC(=O)[C@H](CS)NC1=O [CRVFLL] (cyclo(CRVFLL)) | 0.6625 |  |  | 
18 | CC(C)C[C@@H]1NC(=O)[C@H](C(C)C)NC(=O)[C@H](CC(C)C)NC(=O)[C@H](C(C)C)NC(=O)[C@H](CCCNC(=N)N)NC(=O)[C@H](CS)NC1=O [CRVLVL, cyclo-CRVLVL] (cyclo(CRVLVL)) | 0.8272 | 201 ± 16 |  | 
19 | CC[C@H](C)[C@@H]1NC(=O)[C@H](Cc2ccc(O)cc2)NC(=O)[C@H](C(C)C)NC(=O)[C@H](CCCNC(=N)N)NC(=O)[C@H](CS)NC(=O)[C@H](CC(C)C)NC1=O [CRVYIL, cyclo-CRVYIL] (cyclo(CRVYIL)) | 1.306 | 31 ± 6 |  | 
20 | CC[C@H](C)[C@@H]1NC(=O)[C@H](CC(C)C)NC(=O)[C@H](Cc2ccc(O)cc2)NC(=O)[C@H](CCCNC(=N)N)NC(=O)[C@H](CS)NC(=O)[C@H](CC(C)C)NC1=O [CRYLIL, cyclo-CRYLIL] (cyclo(CRYLIL)) | 0.6083 | 20 ± 2 |  | 
21 | CC(C)C[C@@H]1NC(=O)[C@H](C(C)C)NC(=O)[C@H](Cc2ccc(O)cc2)NC(=O)[C@H](Cc2ccc(O)cc2)NC(=O)[C@H](CCCNC(=N)N)NC(=O)[C@H](CS)NC1=O [CRYYVL, cyclo-CRYYVL] (cyclo(CRYYVL)) | 0.6784 | 59 ± 7 |  | 
22 | CC(C)C[C@@H]1NC(=O)[C@H](Cc2c[nH]c3ccccc23)NC(=O)[C@H](C(C)C)NC(=O)[C@H](CO)NC(=O)[C@H](CS)NC(=O)[C@H](Cc2ccc(O)cc2)NC1=O [CSVWLY, cyclo-CSVWLY] (cyclo(CSVWLY)) | 2.022 | 103 ± 28 |  | 
23 | CC[C@H](C)[C@@H]1NC(=O)[C@H](CCCNC(=N)N)NC(=O)[C@H](CCSC)NC(=O)[C@H](C(C)C)NC(=O)[C@H](CS)NC(=O)[C@H](C)NC1=O [CVMRIA, cyclo-CVMRIA] (cyclo(ACVMRI)) | 0.6968 | 168 ± 40 |  | 
24 | cyclo-CVTYVL | 3.732 |  |  | 
